# Results reported in patent US10544156B2, “Hemi-synthetic trilobine analogs for use as a drug” (PIERRE FABRE MEDICAMENT, priority 2015, dated 2020).
# Key:
# [1] = biological target: T1, His-DNMT1 (182 kDa, human) (Homo sapiens, UniProt P26358); assay: hDNMT1 assay ([methyl-3H] SAM Flashplate); format: biochemical; settings: for inhibition at 10 µM: read-out: hDNMT 1 inhibition, Inhibition (%) 10 μM; for inhibition at 32 µM: read-out: hDNMT 1 inhibition, Inhibition (%) 32 μM
# T1 construct: His; made in house
# T1 sequence (P26358 whole entry): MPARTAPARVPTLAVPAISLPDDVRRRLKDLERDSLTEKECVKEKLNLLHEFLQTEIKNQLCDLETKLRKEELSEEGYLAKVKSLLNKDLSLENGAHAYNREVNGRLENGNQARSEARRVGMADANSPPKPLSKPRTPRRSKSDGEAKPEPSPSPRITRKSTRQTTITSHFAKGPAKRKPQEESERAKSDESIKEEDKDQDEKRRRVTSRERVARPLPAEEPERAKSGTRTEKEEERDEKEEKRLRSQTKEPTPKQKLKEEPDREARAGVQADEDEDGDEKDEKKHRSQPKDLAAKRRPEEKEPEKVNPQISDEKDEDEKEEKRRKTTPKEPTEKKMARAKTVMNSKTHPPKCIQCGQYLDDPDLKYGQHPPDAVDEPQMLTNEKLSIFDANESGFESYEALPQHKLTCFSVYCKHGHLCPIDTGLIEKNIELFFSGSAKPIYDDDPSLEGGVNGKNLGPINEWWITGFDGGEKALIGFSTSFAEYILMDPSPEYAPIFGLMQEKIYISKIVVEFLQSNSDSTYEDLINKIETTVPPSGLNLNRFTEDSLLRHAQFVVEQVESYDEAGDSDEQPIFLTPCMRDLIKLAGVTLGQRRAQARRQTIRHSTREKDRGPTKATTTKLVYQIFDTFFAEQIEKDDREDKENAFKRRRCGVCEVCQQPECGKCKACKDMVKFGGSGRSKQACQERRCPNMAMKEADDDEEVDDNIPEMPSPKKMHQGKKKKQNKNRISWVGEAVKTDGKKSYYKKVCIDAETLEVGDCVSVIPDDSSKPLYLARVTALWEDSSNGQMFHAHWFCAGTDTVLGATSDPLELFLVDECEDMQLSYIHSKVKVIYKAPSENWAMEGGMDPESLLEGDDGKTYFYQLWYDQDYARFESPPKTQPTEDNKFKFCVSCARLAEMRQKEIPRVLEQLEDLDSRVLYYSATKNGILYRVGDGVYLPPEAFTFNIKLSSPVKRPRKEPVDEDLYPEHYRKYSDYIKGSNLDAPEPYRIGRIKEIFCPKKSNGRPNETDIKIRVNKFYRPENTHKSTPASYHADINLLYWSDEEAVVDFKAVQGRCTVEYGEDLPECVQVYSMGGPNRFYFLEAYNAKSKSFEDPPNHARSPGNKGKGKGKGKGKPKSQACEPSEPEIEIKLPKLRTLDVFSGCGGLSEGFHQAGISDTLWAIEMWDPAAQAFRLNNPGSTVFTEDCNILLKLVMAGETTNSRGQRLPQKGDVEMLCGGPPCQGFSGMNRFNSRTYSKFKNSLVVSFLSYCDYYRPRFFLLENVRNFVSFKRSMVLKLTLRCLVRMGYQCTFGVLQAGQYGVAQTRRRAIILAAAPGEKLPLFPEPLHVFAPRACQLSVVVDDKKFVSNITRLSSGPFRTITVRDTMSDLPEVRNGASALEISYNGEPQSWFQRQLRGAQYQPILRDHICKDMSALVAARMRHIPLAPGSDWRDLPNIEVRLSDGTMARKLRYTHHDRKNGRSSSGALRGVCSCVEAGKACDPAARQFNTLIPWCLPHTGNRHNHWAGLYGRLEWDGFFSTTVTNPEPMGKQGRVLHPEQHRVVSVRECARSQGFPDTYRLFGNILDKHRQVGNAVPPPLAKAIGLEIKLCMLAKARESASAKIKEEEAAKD
# Experimental: His-DNMT1 (182 kDa, human) was cloned, expressed and purified as described (Halby et al. Chem Bio Chem 2012, 13, 157-165). The reaction was performed in a 10 μL total reaction volume in low volume NBS™ 384-well microplates (Corning), containing the tested compound (up to 1% DMSO), 1 μM of a SAM/[methyl-^3H] SAM (3TBq/mmol, PerkinElmer) mix in a ratio of 3-to-1 (isotopic dilution 1*:3), 0.3 μM of biotinylated hemimethylated DNA duplex (5′-GATmCGCmCGATGmCGmCGAATmCGmCGATmCGATGmCGAT-3′ and BIOT-5′-[…]-3′), and 90 nM of DNMT1 in methylation buffer (20 mM HEPES pH 7.2, 1 mM EDTA, 50 mM KCl, 25 μg/mL BSA). The reaction was incubated at 37° C. for 2 hours. 8 μL are then transferred into a streptavidin 96-well scintillant coated Flashplate™ (PerkinElmer) containing 190 μL of 20 μM SAH in 50 mM Tris-HCl pH 7.4. The Flashplate™ was agitated at room temperature for 1 hour and read in 200 μL of 50 mM Tris-HCl pH 7.4 on TopCount NXT (PerkinElmer). The percentage of inhibition is reported. The formula used to calculate the percentage of inhibition is [(X−Y)/X]×100, where X is the signal determined in the absence of the inhibitor and Y is the signal obtained in the presence of the inhibitor.
# [2] = tested on: CMV promoter in KG-1-Luc cells; assay: CMV promoter analysis by NOMe-Seq (CpG methylation and chromatin accessibility); format: cell-based, human; settings: at 5 μM, 24 h; for DNA demethylation, KG1 CMV-Luc model: methylated cytosine treated vs non treated; for Chromatin accessibility, KG1 CMV-Luc model: ratio of GpC methylation
# Experimental: Using the Nucleosome Occupancy and Methylome Sequencing (NOMe-Seq) technique, the methylation status of the CMV promoter and the position of the nucleosomes on such promoter were both analysed.
# NOMe-seq is a modified version of the methylation-dependent single promoter assay described by Miranda et al. (Curr Protoc Mol Biol. 2010 21.17.1-16) and the methylase-based DNA assay was performed as previously described with minor modifications. After nuclei extraction, GpC DNA methyltransferase M.CviPI (New England Biolabs) reactions were done in M.CviPI reaction buffer. GpC methyltransferase treatment was followed by DNA extraction, sodium bisulfite conversion, PCR amplification of the region of interest, cloning, and sequencing of individual clones to reveal the structure of single replicas as functional units. After treatment with the compounds or with DMSO, KG-1-Luc cells were centrifuged for 5 min at 500×g. Cell pellets were washed in ice-cold PBS, resuspended in 1 mL of ice-cold nuclei buffer [10 mM Tris (pH 7.4), 10 mM NaCl, 3 mM MgCl2, 0.1 mM EDTA, and 0.5% Nonidet P-40, plus protease inhibitors] per 2×10^6 cells, and incubated on ice for 10 min. Nuclei were recovered by centrifugation at 900×g for 5 min, washed twice in nuclei wash buffer [10 mM Tris (pH 7.4), 10 mM NaCl, […], and 0.1 mM EDTA containing protease inhibitors], and resuspended with 200 μL in 1×M.CviPI reaction buffer supplemented with 0.3 M sucrose, 160 μM SAM (New England Biolabs). 100 μL of purified genomic DNA were treated with 100 U of M.CviPI for 15 min at 37° C. in 200 μL final volume. The other part of 100 μL of purified genomic DNA were not treated with 100 U of M.CviPI but just incubated for 15 min at 37° C. to obtain CpG methylation profile. Reactions were stopped by the addition of an equal volume of stop solution [20 mM Tris.HCl (pH 7.9), 600 mM NaCl, 1% SDS, 10 mM EDTA, and 400 μg/mL Proteinase K] and incubated at 55° C. overnight. DNA was purified by phenol/chloroform extraction and ethanol precipitation. Bisulfite conversion was performed with the EZ DNA Methylation-Gold Kit (Zymo Research). Bisulfited DNA was eluted with 12 μL of water and 8 μL were used for CMV amplification.
# The CMV promoter DNA amplification was carried on 8.3 μL eluted bisulfited DNA in 20 μL PCR reaction containing 1×KAPA2G Buffer A, 2.0 mM MgCl2, 200 μM dNTPs, 125 nM each primer and 1.0 units KAPA2G™ Robust HotStart DNA Polymerase (KapaBiosystems) on C1000 Touch™ thermal cycler 95° C. 3 min following by 95° C. for 20 sec, 55° C. for 30 sec, 72° C. for 30 sec×40 cycles and final extension at 72° C. 1 min. PCR fragments were quality controlled by agarose gel electrophoresis.
# Steps of cloning and sequencing were as those described previously except that M13 PCR was used to amplify the cloned sequence in 20 μL PCR reaction volume containing 1×KAPA2G Buffer B, 2.0 mM MgCl2, 200 μM dNTPs, 125 nM each primer and 1.0 U KAPA2G™ Robust HotStart DNA Polymerase (KapaBiosystems) on C1000 Touch™ thermal cycler 95° C. 3 min following by 95° C. for 20 sec, 55° C. for 30 sec, 72° C. for 30 sec×40 cycles and final extension at 72° C. 1 min.
# Genomic alignment and bisulfite sequence analysis was performed largely as previously described (Berman et al. Nat Genet 2012, 44, 40-6).
# BISMA (Bisulfite Sequencing DNA Methylation Analysis) software was used for CpG methylation analysis of primary bisulfite sequencing data from subcloned individual molecules (Rohde et al. BMC Bioinformatics 2010, 11, 230). Methyl Viewer (Pardo et al. Nucleic Acids Res 2011, 39, e5) was used to obtain GC methylation results and nucleosome occupancy. The ratio of methylation is representative of the chromatin accessibility by M.CviPI and nucleosome occupancy. The combined methylation status for each clone by CpG (BISMA) or GpC (Methyl Viewer) site has been assembled. […]
Structure (SMILES),"EC50 ([1]; read-out: EC50 (μM), hDNMT 1 inhibition)",inhibition at 10 µM [1],inhibition at 32 µM [1],"DNA demethylation, KG1 CMV-Luc model [2]","Chromatin accessibility, KG1 CMV-Luc model [2]"
CCN(CC)CCCNC(=S)N1CCc2cc3c4cc2[C@@H]1Cc1ccc(OC)c(c1)Oc1ccc(cc1)C[C@H]1c2c(cc(OC)c(c2O4)O3)CCN1C(=S)NCCCN(CC)CC [Product 41],11 ± 0.7 µM,60%,99%,0%,2.1 ± 0.1
CNC(=O)N1CCc2cc(OC)c3c4c2[C@@H]1Cc1ccc(cc1)Oc1cc(ccc1OC)C[C@H]1c2cc(c(cc2CCN1C)O3)O4 [Product 44],–,0%,15%,−53 ± 6%,2.3 ± 0.2
"COc1ccc2cc1Oc1ccc(cc1)C[C@@H]1NCCc3cc(OC)c4c(c31)Oc1cc3c(cc1O4)CCN(C)[C@H]3C2 [Trilobine (1), trilobine]",–,4%,–,−37 ± 8%,1.9 ± 0.1
